Key:
[1] = biological target: T1, Melatonin receptor type 1B (Homo sapiens, UniProt P49286); experiment: Displacement of 2-[125I]iodomelatonin from human MT2 receptor expressed in CHO cell membranes after 120 mins
T1 sequence (P49286 whole entry): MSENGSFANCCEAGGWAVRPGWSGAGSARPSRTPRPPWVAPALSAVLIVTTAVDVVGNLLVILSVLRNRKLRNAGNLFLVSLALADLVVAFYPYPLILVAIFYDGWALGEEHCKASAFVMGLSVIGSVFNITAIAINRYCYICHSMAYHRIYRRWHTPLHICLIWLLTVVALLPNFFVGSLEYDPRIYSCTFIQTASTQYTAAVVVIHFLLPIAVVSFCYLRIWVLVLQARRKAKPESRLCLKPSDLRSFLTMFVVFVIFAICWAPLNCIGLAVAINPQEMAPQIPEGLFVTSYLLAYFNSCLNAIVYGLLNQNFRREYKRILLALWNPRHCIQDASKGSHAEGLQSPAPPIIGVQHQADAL

[2] = biological target: T2, Melatonin receptor type 1A (Homo sapiens, UniProt P48039); experiment: Displacement of 2-[125I]iodomelatonin from human MT1 receptor expressed in CHO cell membranes after 120 mins
[3] = biological target: T3, 5-hydroxytryptamine receptor 2C (Homo sapiens, UniProt P28335); experiment: Binding affinity to 5-HT2C receptor (unknown origin)
T3 sequence (P28335 whole entry): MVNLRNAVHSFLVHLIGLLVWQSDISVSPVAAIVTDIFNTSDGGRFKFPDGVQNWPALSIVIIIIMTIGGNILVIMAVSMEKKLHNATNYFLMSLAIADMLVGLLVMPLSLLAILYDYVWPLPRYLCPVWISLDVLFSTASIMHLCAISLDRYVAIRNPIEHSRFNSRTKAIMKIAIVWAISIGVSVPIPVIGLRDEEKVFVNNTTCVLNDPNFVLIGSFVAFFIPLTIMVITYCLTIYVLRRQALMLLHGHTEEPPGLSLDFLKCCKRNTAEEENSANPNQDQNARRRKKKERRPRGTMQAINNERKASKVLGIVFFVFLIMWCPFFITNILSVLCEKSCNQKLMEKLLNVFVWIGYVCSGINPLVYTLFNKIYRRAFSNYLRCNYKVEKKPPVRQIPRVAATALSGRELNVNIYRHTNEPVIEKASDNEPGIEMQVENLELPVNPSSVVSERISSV

[4] = biological target: T1, Melatonin receptor type 1B; experiment: Intrinsic activity at human MT2 receptor expressed in CHO cell membranes after 1 hr by [35S]GTPgammaS binding assay; format: functional
[5] = biological target: T2, Melatonin receptor type 1A; experiment: Intrinsic activity at human MT1 receptor expressed in CHO cell membranes after 1 hr by [35S]GTPgammaS binding assay; format: functional
Homo sapiens = species: Homo sapiens; experiment: Selectivity ratio of Ki for human MT1 receptor to Ki for human MT2 receptor

T2 sequence (P48039 whole entry): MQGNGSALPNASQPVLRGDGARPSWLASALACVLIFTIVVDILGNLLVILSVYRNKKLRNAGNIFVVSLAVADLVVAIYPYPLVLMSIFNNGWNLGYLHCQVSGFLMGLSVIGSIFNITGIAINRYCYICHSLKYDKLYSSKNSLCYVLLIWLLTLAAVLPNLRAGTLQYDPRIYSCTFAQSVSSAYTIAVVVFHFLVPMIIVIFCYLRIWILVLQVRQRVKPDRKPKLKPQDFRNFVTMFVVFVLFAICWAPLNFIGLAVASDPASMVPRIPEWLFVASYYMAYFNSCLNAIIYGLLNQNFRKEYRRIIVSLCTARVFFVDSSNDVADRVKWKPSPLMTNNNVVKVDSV

Row | Structure (SMILES) | Ki [1] | Ki [2] | Ki [3] | EC50 [4] | EC50 [5] | Ratio Ki (Homo sapiens)
1 | CCNC(=S)NCc1cc2c(ccc3ccc(OC)cc32)o1 | 7 nM | 140 nM | 730 nM | – | – | –
2 | COc1ccc2ccc3oc(CNC(=O)CF)cc3c2c1 | 0.7 nM | 5.7 nM | > 10000 nM | 1.1 nM | 9.5 nM | –
3 | COc1ccc2ccc3occ(CNC(=O)CF)c3c2c1 | 2.1 nM | 9.9 nM | > 10000 nM | 3.4 nM | 29 nM | –
4 | COc1ccc2ccc3oc(CNC(=O)C4CC4)cc3c2c1 | 0.6 nM | 1.9 nM | > 10000 nM | 0.98 nM | 1 nM | –
5 | COc1ccc2ccc3occ(CNC(=O)C(C)C)c3c2c1 | 24 nM | 158 nM | > 10000 nM | 8.8 nM | 8.1 nM | –
6 | COc1ccc2ccc3occ(CNC(=O)C4CC4)c3c2c1 | 15 nM | 20 nM | > 10000 nM | 8.8 nM | 1 nM | –
7 | COc1ccc2ccc3oc(CNC(C)=O)cc3c2c1 | 0.4 nM | 2.1 nM | > 10000 nM | 0.98 nM | 7.7 nM | –
8 | COc1ccc2ccc3oc(CCNC(C)=O)cc3c2c1 | 1.7 nM | 10 nM | > 10000 nM | > 10000 nM | > 10000 nM | –
9 | COc1ccc2ccc3oc(CCNC(=O)C4CC4)cc3c2c1 | 11 nM | 73 nM | > 10000 nM | 5.8 nM | > 10000 nM | –
10 | COc1ccc2ccc3occ(CCNC(=O)C4CC4)c3c2c1 | 13.3 nM | 236 nM | > 1000 nM | 3.2 nM | 5.2 nM | –
11 | COc1ccc2ccc3occ(CNC(C)=O)c3c2c1 | 0.7 nM | 4.6 nM | > 10000 nM | 1.4 nM | 4.8 nM | –
12 | COc1ccc2ccc3occ(CCNC(C)=O)c3c2c1 | 0.09 nM | 2.8 nM | 140 nM | 0.7 nM | 4.6 nM | 31
13 | CCNC(=O)NCc1cc2c(ccc3ccc(OC)cc32)o1 | 4.2 nM | 17 nM | > 10000 nM | 10 nM | > 10000 nM | –
14 | CCNC(=O)NCCc1coc2ccc3ccc(OC)cc3c12 | 226 nM | 157 nM | > 1000 nM | 6.2 nM | 75 nM | –
15 | CNC(=S)NCc1cc2c(ccc3ccc(OC)cc32)o1 | 0.8 nM | 43 nM | > 10000 nM | – | – | –
16 | CNC(=O)NCc1cc2c(ccc3ccc(OC)cc32)o1 | – | – | > 10000 nM | – | – | –
17 | CCNC(=O)NCCc1cc2c(ccc3ccc(OC)cc32)o1 | 46 nM | 210 nM | > 10000 nM | – | – | –

— ChEMBL document CHEMBL3758099, “Melatonergic ligands: Design, synthesis and pharmacological evaluation of novel series of naphthofuranic derivatives” (Eur J Med Chem, 2016)
